Data set [1] has as its system HCV-RNA replication in OR6 cells (HCV-O strain, HuH-7-derived). Put plainly: microbe, parasite or virus in culture. Conditions: for EC50: Hepatitis C virus, OR6, 72 h; for SI (CC50/EC50): OR6 cells. From the text:
Assay systems using OR6 cells (HCV-O strain), 1B-4R cells (HCV-1B-4 strain), and AH1R cells (HCV-AH1R strain) as HuH-7 cell-derived full-length HCV-RNA-replicating cells, and ORL8 cells (HCV-O strain), ORL11 cells (HCV-O strain), 1B-4RL cells (HCV-1B-4 strain), and KAH5RL cells (HCV-KAH5 strain) as Li23 cell-derived full-length HCV-RNA-replicating cells were used for the quantitative analysis of anti-HCV activity and evaluation of a cytotoxic effect in the present invention. The three cell lines, i.e., the 1B-4R cells, the 1B-4RL cells, and the KAH5RL cells have been disclosed in WO 2010/026965 A1. The AH1R cells may be produced with reference to Mori K et al., BBRC, 371:104-109, 2008 and WO 2010/026965 A1. In addition, all the HCV strains belong to genotype 1b.
As necessary, an increase or decrease in expression level of an HCV protein (core protein) was examined by a Western blot method.
In the measurement of the renilla luciferase activity and the measurement by the WST-1 method, experiments were performed in three wells independent of each other, and their means and standard deviation were calculated.
OR6 cells, which had been cultured in general medium for subculture, were plated onto a 24-well plate (2×10^4 cells in 1 mL of medium for […] cell line per well) and cultured. After 24 hours, N-89 was added so as to achieve concentrations of 20 μM, a 2-fold dilution series from 20 μM (10, 5, 2.5, 1.3, 0.63, and 0.31 μM), and 0, or N-251 was added so as to achieve concentrations of 10 μM, a 2-fold dilution series from 10 μM (5, 2.5, 1.3, 0.63, 0.31, and 0.16 μM), and 0. The renilla luciferase activities were measured 72 hours after the culture. N-89 and N-251 were diluted with DMSO.
The anti-HCV activity of artemisinin was examined using OR6 cells and ORL8 cells and the EC50 values were calculated. An experimental scale and schedule are the same as those in Example 1.
Artemisinin was added so as to achieve concentrations of 100 μM, a 2-fold dilution series from 100 μM (50, 25, 13, 6.3, 3.1, and 1.6 μM), and 0. The luciferase activities were measured 72 hours after the culture.

In data set [2] the test system is HCV-RNA replication in ORL11 cells (HCV-O strain, Li23-derived). The data set can be described thus: microbe, parasite or virus in culture. The class given is cell-based, HCV genotype 1b. The conditions noted are these: for EC50: Hepatitis C virus, 72 hours, renilla luciferase activity.
Method: (§3) N-89 was added so as to achieve concentrations of 500 nM, a 2-fold dilution series from 500 nM (250, 125, 63, 31, 16, and 8 nM), and 0. The luciferase activities were measured 72 hours after the culture.
N-251 was added so as to achieve concentrations of 1 μM, a 2-fold dilution series from 1 μM (500, 250, 125, 63, 31, and 16 nM), and 0. The luciferase activities were measured 72 hours after the culture.
The test system of data set [3] is HCV-RNA replication in AH1R cells (HCV-AH1 strain, HuH-7-derived). Put plainly: microbe, parasite or virus in culture. Format: cell-based, HCV genotype 1b. The conditions noted are these: for EC50: Hepatitis C virus, 72 hours, renilla luciferase activity.
From the text: (§4) Assay systems using OR6 cells (HCV-O strain), 1B-4R cells (HCV-1B-4 strain), and AH1R cells (HCV-AH1R strain) as HuH-7 cell-derived full-length HCV-RNA-replicating cells, and ORL8 cells (HCV-O strain), ORL11 cells (HCV-O strain), 1B-4RL cells (HCV-1B-4 strain), and KAH5RL cells (HCV-KAH5 strain) as Li23 cell-derived full-length HCV-RNA-replicating cells were used for the quantitative analysis of anti-HCV activity and evaluation of a cytotoxic effect in the present invention. […] In addition, all the HCV strains belong to genotype 1b.
as §3
N-251 was added so as to achieve concentrations of 2 μM, a 2-fold dilution series from 2 μM (1, 0.5, 0.25, 0.13, 0.06, and 0.03 μM), and 0. The luciferase activities were measured 72 hours after the culture.
The nature of data set [4]: Cytotoxic effect, WST-1 cell proliferation assay in AH1R cells. The conditions noted are these: human. The class given is cell-based.
From the text: as §4
The WST-1 cell proliferation assay was performed 72 hours after the culture.
The subject of a further data set is HCV RNA in ORL8 cells. The data set can be described thus: Production of cured cells from ORL8 cells by treatment with N-89. Format: cell-based, HCV genotype 1b. On the procedure:
A drug treatment method for the cells was performed according to a method with IFN-γ (1,000 IU/mL) (Abe K et al., Virus Res. 125:88-97, 2007) generally used in the production of cured cells by the inventors of the present invention.
(§1) 4×10^5 ORL8 cells were plated onto a 10-cm plate (10 mL of medium in the absence of G418) (Day 1), and N-89 was added so as to achieve a final concentration of 1 μM the next day (Day 2). After 3 days (Day 5), the cells were diluted 10-fold, and N-89 was added again the next day. This operation was repeated an additional four times (N-89 was added six times in total: Days 2, 6, 10, 14, 18, and 22). At the time of the dilution of the cells (Day 13), which was performed 3 days after the third addition of N-89, the cells were divided into two plates with medium in the presence of G418 (neomycin) (0.3 mg/mL) and medium in the absence of G418. Then, N-89 was added three times, a plurality of plates were prepared at the time of the final dilution of the cells, and finally, one of the plates for each of the media was subjected to CBB staining (Day 26).
FIG. 14 show the results. […] The ORL8 cells cultured in the medium in the presence of G418 were all killed, whereas the ORL8 cells cultured in the absence of G418 became confluent at a normal proliferation rate. In order to confirm that HCV RNA was eliminated from the cells, Western blot analysis was performed using an anti-HCV core antibody and an anti-HCV NS5B antibody (FIG. 14c). The ORL8 cells were used as a positive control.

The subject of data set [5] is HCV RNA in OL8 cells (HCV-O strain-derived full-length HCV-genome-replicating cells). The data set can be described thus: Production of cured cells from OL8 cells subcultured for 3 years. Format: cell-based. Conditions: treated similarly with N-89. As to the method:
as §1
(§2) Further, cells obtained by subculturing HCV-O strain-derived full-length HCV-genome-replicating cells (OL8 cells and OL11 cells) (Kato et al., Virus Res. 146:41-50, 2009) for 3 years (the cells had acquired the status of genetic diversity (called quasispecies) owing to various mutations in an HCV genome caused by the sustained replication of the HCV genome) were used and similarly treated with N-89.

Data set [6] concerns HCV RNA in OL11 cells (HCV-O strain-derived full-length HCV-genome-replicating cells). The data set can be described thus: Production of cured cells from OL11 cells subcultured for 3 years. Format: cell-based. Conditions: treated similarly with N-89. As to the method:
as §1, §2

Data set [7] concerns HCV-RNA replication in ORL8 cells. Put plainly: Influence of oxidizing agents KNO3 and NaClO4 on anti-HCV activity in ORL8 cells. The conditions noted are these: N-89 0.5 μM + KNO3 or NaClO4 10 μM, 72 hours. Format: cell-based, HCV genotype 1b. As to the method: The effects of addition of KNO3 and NaClO4 on the anti-HCV activity of N-89 were examined using ORL8 cells.
N-89 and KNO3 or NaClO4 were simultaneously added so that the concentrations of N-89 and KNO3 or NaClO4 were set to 0.5 μM and 10 μM, respectively. The luciferase activity was measured 72 hours after the culture.

The nature of data set [8]: Cytotoxic effect, WST-1 cell proliferation assay in KAH5RL cells. Conditions: human; KAH5RL cells, 72 hours, WST-1. Format: cell-based, human.
Method: The concentrations of N-89 and N-251 were the same as the concentrations used for the measurement of the luciferase activity, and the WST-1 cell proliferation assay was performed 72 hours after the addition.
The subject of the next data set is KAH5RL cells. The data set is described as above. Format: cell-based, human. The conditions noted are these: KAH5RL vs ORL8.
A further data set relates to 1B-4RL cells. Put plainly: Cytotoxic effect, WST-1 cell proliferation assay in 1B-4RL cells. The class given is cell-based, human. The conditions noted are these: 72 hours.

Read-outs that look alike come from different tables or passages of the source.

From the text for 1B-4RL cells: as §4
N-89 was added at the concentrations used for the measurement of the luciferase activity, and N-251 was added so as to achieve concentrations of 2 μM, a 2-fold dilution series from 2 μM (1, 0.5, 0.25, 0.13, 0.06, and 0.03 μM), and 0. The WST-1 cell proliferation assay was performed 72 hours after the addition.

Take `C1CCCCCC2(CCCCC1)OOCCCOO2` [N-89, 1,2,6,7-tetraoxaspiro[7,11]nonadecane]: the figures for the EC50 in data set [1], in data set [2] and in data set [3] were 660 nM, 45 nM and 25 nM, respectively. Also, the “SI (CC50/EC50)” value is listed as 14 in data set [1], 12 in data set [2], “about 20” in data set [3] and about 20 in data set [3] (listed as N89). For the same compound, the half-maximal cytotoxic concentration (CC50) at 72 h in data set [4] is about 500 nM. Also, in the data set with HCV RNA in ORL8 cells (ORL8 cells treated with N-89 1 μM, added six times, Day 26), the “HCV core protein and NS5B in treated cells (Western blot)” value is “none of a core protein and NS5B was detected”. In the data set on HCV RNA in ORL8 cells (ORL8 cells, N-89 1 μM, G418 0.3 mg/mL), the “treated cells cultured in medium in the presence of G418 (CBB staining)” value is recorded as “all killed”. The “production of cured cells” value is listed as “cured cells were able to be produced” with HCV RNA in ORL8 cells (ORL8 cells, N-89 1 μM, added six times); “cured cells were able to be produced” in data set [5]; “cured cells were able to be produced” in [6]. Moreover, the “influence of KNO3 or NaClO4 in combination on the anti-HCV activity” value in [7] is listed as “no influence”.

Consider `OCCCCCCC1COOC2(CCCCCCCCCCC2)OOC1` [N-251, 6-(1,2,6,7-tetraoxaspiro[7,11]nonadec-4-yl)], for which the results for the EC50 in data set [1], in data set [2] and in data set [3] were 690 nM, 59 nM and 140 nM, respectively. Besides, the “SI (CC50/EC50)” value in data set [1] is listed as 4.4; in data set [2], 19; in [3] it was 3.5. Besides, the CC50 at 72 h in data set [8] turned out to be 3200 nM. Further, in the data set with KAH5RL cells, the “CC50 fold higher in KAH5RL cells than in ORL8 cells” value is “about 2.5 fold”. Besides, half-maximal cytotoxicity in the data set with 1B-4RL cells (CC50) was put at 1900 nM.

The values above are taken from patent publication US9289411B2, “Anti-HCV agent” (NATIONAL UNIVERSITY CORPORATION OKAYAMA UNIVERSITY, priority 2011, dated 2016).
